Measured values as given in ChEMBL document CHEMBL1133036, “Diacylglycerols with lipophilically equivalent branched acyl chains display high affinity for protein kinase C (PK-C). A direct measure of the effect of constraining the glycerol backbone in DAG lactones” (Bioorg Med Chem Lett, 2000).

Assay: Partition coefficient (logD)
Assay type: physicochemical
Details: octanol/water

Row | Compound | logD
1 | CC(C)(C)C(=O)OCC(CO)OC(=O)C(C)(C)C (stereo unspecified) | 2
2 | CC(C)C(CC(=O)OC[C@H](CO)OC(=O)CC(C(C)C)C(C)C)C(C)C | 5
3 | CC(C)C(C/C=C1/CC(CO)(COC(=O)CC(C(C)C)C(C)C)OC1=O)C(C)C (stereo unspecified) | 5
4 | O=C(OC[C@H](CO)OC(=O)C12CC3CC(CC(C3)C1)C2)C12CC3CC(CC(C3)C1)C2 | 5
5 | CCCCCCCC(=O)OC[C@H](CO)OC(=O)CCCCCCC | 5
6 | CCCCCCCC/C=C/CCCCCCCC(=O)O[C@@H](CO)COC(C)=O [AUTONOM NAME:] | 7
